Data from patent publication EP0471358B1, “Fluoroethylcamptothecin derivatives” (KYORIN PHARMACEUTICAL CO., LTD., priority 1990, dated 1992).

Tested on: P388 leukemia
Assay: Antineoplastic effect for P388 leukemia mice (survival, T/C)
Format: in vivo, CDF₁ mice
Details: Total dose 20 mg/kg; dosed to the abdominal cavity 1, 5 and 9 days after transplantation of 10⁶ P388 cells; average survival days of dosed vs non-dosed group
Experimental: P388 cells of 10⁶ in number were transplanted into abdominal cavity of CDF₁ mice of approximately 9 week-age (female, Non-dosed group: 5 - 8 mice, group dosed with the test compound: 1 - 5 mice). One, five, and nine days after the transplantation, the test compound which was dissolved or suspended in 1% Tween 80 (Kanto Chemical Inc.)/physiological saline was dosed to the abdominal cavity. The antineoplastic effect of the test compounds are shown by the T/C value (%) derived from the formula below. (T)/(C)(%) =(Average survival days of dosed group)/(Average survival days of non-dosed group)x 100 [formula]

In order of falling “T/C (%)” value:
1. CCc1c2c(nc3ccc(C)cc13)-c1cc3c(c(=O)n1C2)COC(=O)C3(O)CCF (stereo not shown) [Example 11, 11-ethyl-4-(2-fluoroethyl)-4-hydroxy-9-methyl-1H-pyrano[3',4':6,7]indolizino[1,2-b]quinoline-3,14(4H,12H)-dione]  483%
2. O=C1OCc2c(cc3n(c2=O)Cc2c-3nc3ccc(Cl)c4c3c2CCC4)C1(O)CCF (stereo not shown) [Example 24, 4-chloro-9-(2-fluoroethyl)-2,3-dihydro-9-hydroxy-1H,12H-benzo[d,e]pyrano[3',4':6,7]indolizino[1,2-b]quinoline-10,13(9H,15H)-dione]  385%
3. CCc1c2c(nc3ccc([N+](=O)[O-])cc13)-c1cc3c(c(=O)n1C2)COC(=O)C3(O)CCF (stereo not shown) [Example 16, 11-ethyl-4-(2-fluoroethyl)-4-hydroxy-9-nitro-1H-pyrano[3',4':6,7]indolizino[1,2-b]quinoline-3,14(4H,12H)-dione]  345%
4. CC[C@@]1(O)C(=O)OCc2c1cc1n(c2=O)Cc2cc3ccccc3nc2-1 [Camptothecin]  218%

Same assay, conditions: Total dose 30 mg/kg; dosed to the abdominal cavity 1, 5 and 9 days after transplantation of 10⁶ P388 cells; average survival days of dosed vs non-dosed group

In order of falling “T/C (%)” value:
1. CCOc1ccc2nc3c(c(CC)c2c1)Cn1c-3cc2c(c1=O)COC(=O)C2(O)CCF (stereo not shown) [Example 26, 9-ethoxy-11-ethyl-4-[2-fluoroethyl)-4-hydroxy-1H-pyrano[3',4':6,7]indolizino[1,2-b]quinoline-3,14(4H,12H)-dione]  583%
2. Cc1c2c(nc3ccccc13)-c1cc3c(c(=O)n1C2)COC(=O)C3(O)CCF (stereo not shown) [Example 41, 4-[2-fluoroethyl)-4-hydroxy-11-methyl-1H-pyrano[3',4':6,7]indolizino[1,2-b]quinoline-3,14(4H,12H)-dione]  386%
3. CCc1ccc2nc3c(c(CC)c2c1)Cn1c-3cc2c(c1=O)COC(=O)C2(O)CCF (stereo not shown) [Example 25, 9,11-diethyl-4-(2-fluoroethyl)-4-hydroxy-1H-pyrano[3',4':6,7]indolizino[1,2-b]quinoline-3,14(4H,12H)-dione]  345%
